In US7109243B2 (IRM LLC, priority 2003, dated 2006):
Read-outs that look alike come from different tables or passages of the source.

Key:
Cathepsin S = Cathepsin S (Homo sapiens, UniProt P25774); assay: Cathepsin S inhibition assay (fluorogenic peptide substrate); format: biochemical
Outline: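 Ki values come from nonlinear fitting of inhibited hydrolysis rates, taking free and total inhibitor concentrations as equal. Rates measured as rising fluorescence at 380/450 nm after reaction start with 50 μM final acetyl-HPVK-aminocarbamoylcoumarin.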

Cathepsin K = target: T1, Cathepsin K (Homo sapiens, UniProt P43235); assay: Cathepsin K inhibition assay (fluorogenic peptide substrate); selectivity ratio vs cathepsin S; format: biochemical
T1 sequence (P43235 115-329): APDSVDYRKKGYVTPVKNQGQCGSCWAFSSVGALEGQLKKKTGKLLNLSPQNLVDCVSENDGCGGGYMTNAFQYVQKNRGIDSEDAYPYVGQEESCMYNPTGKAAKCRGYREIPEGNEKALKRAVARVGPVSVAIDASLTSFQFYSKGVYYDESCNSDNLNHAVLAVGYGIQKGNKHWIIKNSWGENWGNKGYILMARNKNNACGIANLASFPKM
Outline: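 Inhibition constants for competitive inhibitors come from apparent values fitted to enzyme progress curves. Substrate, acetyl-Lys-His-Pro-Lys-aminocarbamoylcoumarin (40 μM final), starts the reaction; fluorescence rise read at 380 nm excitation, 450 nm emission. Selectivity ratio: other cathepsin constant over cathepsin S constant.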

[1] = Table II, compounds of Formula I, read-out: Ki Cat. S
[2] = ratio of cathepsin K inhibition constant to cathepsin S inhibition constant, Table II

Sequence of Cathepsin S (P25774 115-331, species assumed): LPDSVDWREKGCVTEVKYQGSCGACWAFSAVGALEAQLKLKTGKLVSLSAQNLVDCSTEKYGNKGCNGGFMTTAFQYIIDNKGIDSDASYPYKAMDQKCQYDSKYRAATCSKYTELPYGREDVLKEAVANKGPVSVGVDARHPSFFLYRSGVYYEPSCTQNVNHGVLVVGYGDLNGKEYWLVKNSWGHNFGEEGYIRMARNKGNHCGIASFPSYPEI

Row | Compound | Ki (Cathepsin S; [1]) [µM] | Selectivity for Cat. S over Cat. K (Cathepsin K; [2]) | Ki (Cathepsin S; comparison compounds in the art, read-out: Ki (CatS)) [µM] | Selectivity for Cat. S over Cat. K (Cathepsin K; comparison compounds in the art, ratio Ki CatK / Ki CatS) | Ki (Cathepsin K; comparison compounds in the art, read-out: Ki (CatK)) [µM]
1 | COc1ccc(NCCNC(=O)[C@H](CCC2CCCCC2)NC(=O)c2sc(N)nc2C)cc1 [Compound 133, (S)-2-Amino-4-methyl-thiazole-5-carboxylic acid {3-cyclohexyl-1-[2-(4-methoxy-phenylamino)-ethylcarbamoyl]-propyl}-amide] | < 1 | ++ (++, >100) |  |  | 
2 | COc1ccc(NCCNC(=O)C(NC(=O)c2cccc(C)c2)C(C)c2ccccc2)cc1 (stereo not drawn) [Compound 269, erythro-N-{1-[2-(4-Methoxy-phenylamino)-ethylcarbamoyl]-2-phenyl-propyl}-3-methyl-benzamide] | < 10 | + (+, >10) |  |  | 
3 | O=C(Cc1cc(F)cc(F)c1)N[C@@H](CC1CCCCC1)C(=O)NCCNc1ccc(F)cc1 [Compound 125, 3-Cyclohexyl-2-(S)-[2-(3,5-difluoro-phenyl)-acetylamino]-N-[2-(4-fluoro-phenylamino)-ethyl]-propionamide] | < 0.1 | ++ (++, >100) |  |  | 
4 | COc1ccc(NCCNC(=O)[C@H](Cc2ccccc2)NC(=O)NCCc2ccccc2)cc1 [Compound 90, (S)-N-[2-(4-Methoxy-phenylamino)-ethyl]-2-(3-phenethyl-ureido)-3-phenyl-propionamide] | < 1 | + (+, >10) |  |  | 
5 | COc1ccc(NCCNC(=O)[C@H](Cc2ccc(Oc3ccc(N(C)C)cc3)cc2)NC(=O)c2cccc(C)c2)cc1 [Compound 33, (S)-N-{2-[4-(4-Dimethylamino-phenoxy)-phenyl]-1-[2-(4-methoxy-phenylamino)-ethylcarbamoyl]-ethyl}-3-methyl-benzamide] | < 10 | + (+, >10) |  |  | 
6 | COc1ccc(NCCNC(=O)[C@H](CCC2CCCCC2)NC(=O)c2cc3cc(Cl)ccc3o2)cc1 [Compound 134, (S)-5-Chloro-benzofuran-2-carboxylic acid {3-cyclohexyl-1-[2-(4-methoxy-phenylamino)-ethylcarbamoyl]-propyl}-amide] | < 1 | ++ (++, >100) |  |  | 
7 | O=C(Cc1ccc(F)c(F)c1)N[C@@H](CC1CCCCC1)C(=O)NCCNc1ccc(F)cc1 [Compound 99, 3-Cyclohexyl-2-(S)-[2-(3,4-difluoro-phenyl)-acetylamino]-N-[2-(4-fluoro-phenylamino)-ethyl]-propionamide] | < 0.1 | ++ (++, >100) |  |  | 
8 | COc1ccc(NCCNC(=O)[C@H](CCC2CCCCC2)NC(=O)c2ccc(-n3cncn3)cc2)cc1 [Compound 143, (S)-N-{3-Cyclohexyl-1-[2-(4-methoxy-phenylamino)-ethylcarbamoyl]-propyl}-4-[1,2,4]triazol-1-yl-benzamide] | < 1 | ++ (++, >100) |  |  | 
9 | CC(C)C[C@H](NC(=O)OCc1ccccc1)C(=O)NCCNc1cccc2ccccc12 [reference compound] |  |  | < 1 | <10 | < 0.1
10 | COc1ccc(NCCNC(=O)[C@H](Cc2ccccc2)NC(=O)Nc2ccc(Oc3ccccc3)cc2)cc1 [Compound 89, (S)-N-[2-(4-Methoxy-phenylamino)-ethyl]-2-[3-(4-phenoxy-phenyl)-ureido]-3-phenyl-propionamide] | < 1 | + (+, >10) |  |  | 
11 | COc1ccc(NCCNC(=O)[C@H](CC2CCCCC2)NC(=O)c2cccc(C(F)(F)F)c2F)cc1 [Compound 166, (S)-N-{2-Cyclohexyl-1-[2-(4-methoxy-phenylamino)-ethylcarbamoyl]-ethyl}-2-fluoro-3-trifluoromethyl-benzamide] | < 0.1 | +++ (+++, >1000) |  |  | 
12 | COc1ccc(NCCNC(=O)[C@H](Cc2ccccc2)NC(=O)CC2C=CCC2)cc1 (stereo partly drawn) [Compound 82, (S)-2-(2-Cyclopent-2-enyl-acetylamino)-N-[2-(4-methoxy-phenylamino)-ethyl]-3-phenyl-propionamide] | < 1 | + (+, >10) |  |  | 
13 | COc1ccc(NCCNC(=O)[C@H](Cc2ccccc2)NC(=O)Nc2ccc3c(c2)OCO3)cc1 [Compound 94, (S)-2-(3-Benzo[1,3]dioxol-5-yl-ureido)-N-[2-(4-methoxy-phenylamino)-ethyl]-3-phenyl-propionamide] | < 10 | + (+, >10) |  |  | 
14 | CS(=O)(=O)c1ccc(C(=O)N[C@@H](CC2CCCCC2)C(=O)NCCNc2ccc(OC(F)(F)F)cc2)s1 [Compound 53, 5-Methanesulfonyl-thiophene-2-carboxylic acid (S)-{2-cyclohexyl-1-[2-(4-trifluoromethoxy-phenylamino)-ethylcarbamoyl]-ethyl}-amide] | < 0.1 | +++ (+++, >1000) |  |  | 
15 | O=C(Cc1ccsc1)N[C@@H](CC1CCCCC1)C(=O)NCCNc1ccc(F)cc1 [Compound 77, 3-Cyclohexyl-N-[2-(4-fluoro-phenylamino)-ethyl]-2-(S)-(2-thiophen-3-yl-acetylamino)-propionamide] | < 0.1 | ++ (++, >100) |  |  | 
16 | COc1ccc(NCCNC(=O)[C@H](CC2CCCCC2)NC(=O)c2cccc(-c3csc(C)n3)c2)cc1 [Compound 123, (S)-N-{2-Cyclohexyl-1-[2-(4-methoxy-phenylamino)-ethylcarbamoyl]-ethyl}-3-(2-methyl-thiazol-4-yl)-benzamide] | < 0.1 | ++ (++, >100) |  |  | 
17 | COc1ccc(NCCNC(=O)[C@H](CC2CCCCC2)NC(=O)c2c[nH]c3ccccc23)cc1 [Compound 185, (S)-1H-Indole-3-carboxylic acid {2-cyclohexyl-1-[2-(4-methoxy-phenylamino)-ethylcarbamoyl]-ethyl}-amide] | < 0.1 | ++ (++, >100) |  |  | 
18 | COc1ccc(NCCNC(=O)[C@H](CC2CCCCC2)NC(=O)c2ccc(-c3cc(C(F)(F)F)ccc3Cl)o2)cc1 [Compound 193, (S)-5-(2-Chloro-5-trifluoromethyl-phenyl)-furan-2-carboxylic acid {2-cyclohexyl-1-[2-(4-methoxy-phenylamino)-ethylcarbamoyl]-ethyl}-amide] | < 0.1 | ++ (++, >100) |  |  | 
19 | COc1ccc(NCCNC(=O)[C@H](Cc2ccc(Oc3ccccc3)cc2)NC(=O)c2cccc(C)c2)cc1 [Compound 327, (S)-N-[1-[2-(4-Methoxy-phenylamino)-ethylcarbamoyl]-2-(4-phenoxy-phenyl)-ethyl]-3-methyl-benzamide] | < 1 | ++ (++, >100) |  |  | 
20 | O=C(N[C@@H](CC1CCCCC1)C(=O)NCCNc1ccc(F)cc1)c1ccoc1 [Compound 272, Furan-3-carboxylic acid (S)-{2-cyclohexyl-1-[2-(4-fluoro-phenylamino)-ethylcarbamoyl]-ethyl}-amide] | < 0.1 | ++ (++, >100) |  |  | 
21 | O=C(Cc1cccc(C(F)(F)F)c1)N[C@@H](CC1CCCCC1)C(=O)NCCNc1ccc(F)cc1 [Compound 323, 3-Cyclohexyl-N-[2-(4-fluoro-phenylamino)-ethyl]-2-(S)-[2-(3-trifluoromethyl-phenyl)-acetylamino]-propionamide] | < 0.1 | ++ (++, >100) |  |  | 
22 | O=C(N[C@@H](CC1CCCCC1)C(=O)NCCNc1ccc(OC(F)F)cc1)c1ccc(-c2cccc(C(F)(F)F)c2)o1 [Compound 10, N-((S)-1-(2-(4-(difluoromethoxy)phenylamino)ethylcarbamoyl)-2-cyclohexylethyl)-5-(3-(trifluoromethyl)phenyl)furan-2-carboxamide] | < 0.1 | +++ (+++, >1000) |  |  | 
23 | O=C(N[C@@H](CC1CCCCC1)C(=O)NCCNc1ccc(F)cc1)C(F)c1ccccc1 (mixture of isomers) [Compound 86, 3-Cyclohexyl-2-(S)-(2-(R,S)-fluoro-2-phenyl-acetylamino)-N-[2-(4-fluoro-phenylamino)-ethyl]-propionamide] | < 0.1 | ++ (++, >100) |  |  | 
24 | O=C(N[C@@H](CC1CCCCC1)C(=O)NCCNc1ccc(F)cc1)C(c1ccccc1)c1ccccc1 [Compound 307, 3-Cyclohexyl-2-(S)-diphenylacetylamino-N-[2-(4-fluoro-phenylamino)-ethyl]-propionamide] | < 0.1 | +++ (+++, >1000) |  |  | 
25 | O=C(N[C@@H](CC1CCCCC1)C(=O)NCCNc1ccc(OC(F)(F)F)cc1)c1csc(-c2ccccc2)n1 [Compound 54, 2-Phenyl-thiazole-4-carboxylic acid (S)-{2-cyclohexyl-1-[2-(4-trifluoromethoxy-phenylamino)-ethylcarbamoyl]-ethyl}-amide] | < 0.1 | + (+, >10) |  |  | 
26 | COc1ccc(NCCNC(=O)[C@H](Cc2ccccc2)NC(=O)c2cccnc2)cc1 [Compound 63, (S)-N-{1-[2-(4-Methoxy-phenylamino)-ethylcarbamoyl]-2-phenyl-ethyl}-nicotinamide] | < 10 | + (+, >10) |  |  | 
27 | O=C(N[C@@H](CC1CCCCC1)C(=O)NCCNc1ccc(OC(F)(F)F)cc1)c1ccc(-c2cc(C(F)(F)F)ccc2Cl)o1 [Compound 251, (S)-5-(2-Chloro-5-trifluoromethyl-phenyl)-furan-2-carboxylic acid {2-cyclohexyl-1-[2-(4-trifluoromethoxy-phenylamino)-ethylcarbamoyl]-ethyl}-amide] | < 0.1 | +++ (+++, >1000) |  |  | 
